In brackets after ≈: the same amount, converted by molar mass. Where two headings read alike, the source gives them in different places. Each block holds one molecule with its values, some of them ahead of it.
What was measured:
[1] = test system: Staphylococcus aureus NCTC 13373 (mecA-positive; methicillin-resistant); test: In vitro antibacterial activity, MIC (UCL School of Pharmacy assay), MRSA; format: cell-based; settings: for MIC: Staphylococcus aureus
Summary of the method: (§1)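 MIC determined over 32–0.03 μg/mL in 2-fold steps, with at most 2% DMSO, in isosensitest broth. Organisms were suspended in PBS to A600 0.1 (about 1 × 10^8 CFU/mL), diluted 1:100 and inoculated; vancomycin served as QC compound.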

[2] = test system: S. aureus ATCC 25923 (methicillin-susceptible); test: In vitro antibacterial activity, MIC (UCL), MSSA; format: cell-based, Staphylococcus aureus; settings: Staphylococcus aureus
Summary of the method: as §1

[3] = test system: Enterococcus faecalis ATCC 51299 (vanA-positive; vancomycin-resistant); test: In vitro antibacterial activity, MIC (UCL), VRE; format: cell-based
Summary of the method: as §1

Aqueous solubility = format: physicochemical; settings: for solubility: thermodynamic from solid
[4] = Human plasma protein binding (PPB); format: in vitro ADME; settings: human, plasma
[5] = Human liver microsome intrinsic clearance; format: in vitro ADME; settings: human liver microsomes, NEU
[6] = Kinetic solubility estimation using nephelometry (Monash); format: physicochemical; settings: for solubility kinetic at 30 min: kinetic from dmso stock
Protocol: Compound in DMSO was spiked into either pH 6.5 phosphate buffer or 0.01 M HCl (approximately pH 2.0) with the final DMSO concentration being 1%. […]
b) Kinetic Solubility Estimation using Nephelometry (SolpH)
Compound in DMSO was spiked into either pH 6.5 phosphate buffer or 0.01 M HCl (approx pH 2.0) with the final
DMSO concentration being 1%. After 30 minutes had elapsed, samples were then analysed via Nephelometry to
determine a solubility range. See Bevan and Lloyd (2000) Anal Chem, 72:1781-1787. […]
In Vitro Intrinsic Clearance […]
(§2) Experimental results are tabulated on the following page(s).
(§3) (1 picture or pasted object on this page, not shown here)

[7] = In vitro metabolic stability, human liver microsomes (Monash); format: in vitro ADME
Protocol: (§4) The metabolic stability assay was performed by incubating each test compound with a suspension of liver microsomes (0.4 mg/mL protein, 1 μM substrate, 37 °C). Microsomes were purchased from XenoTech. The metabolic reaction was initiated by the addition of an NADPH-regenerating system and quenched at various time points over a 60 min incubation by the addition of acetonitrile containing metolazone as an internal standard. Control samples (containing no NADPH) were included (quenched at 2, 30, and 60 min) to monitor for potential degradation in the absence of cofactor. […]
(§5) d) In Vitro Metabolic Stability
(§6) The metabolic stability assay was performed by incubating each test compound with a suspension of liver
(§7) microsomes (0.4 mg/mL, 37°C). The metabolic reaction was initiated by the addition of an NADPH-regenerating
(§8) system and quenched at various time points over a 60 minute incubation by the addition of acetonitrile containing
(§9) metolazone as internal standard. Control samples (containing no NADPH) were included (quenched at 2, 30 and 60
(§10) minutes) to monitor for potential degradation in the absence of cofactor.
(§11) The human liver microsomes used in this experiment were supplied by XenoTech, lot # 1710084.The rat liver
(§12) microsomes used in this experiment were supplied by XenoTech, lot # 1610290. Microsomal incubations were
(§13) performed at a substrate concentration of 1 µM.
(§14) Data analysis and interpretation:
(§15) Substrate depletion as a function of time was analysed as described by Obach (1999) Drug Metab. Dispos., 27:1350-
(§16) 1359. Intrinsic clearance (CLint) values were classified at the limits of low and high clearance bands based on a
(§17) rearrangement of the well stirred model of hepatic elimination. It should be noted that the potential impact of
(§18) compound binding (either in microsomes or in blood) on the relationship between in vitro intrinsic clearance and
(§19) hepatic clearance in vivo has not been accounted for in these studies.
(§20) In Vitro Intrinsic Clearance
(§21) Species (µL/min/mg protein)
(§22) Low Clearance High Clearance
as §2, §3

[8] = In vitro metabolic stability, rat liver microsomes (Monash); format: in vitro ADME
Protocol: as §4, §5, §6, §7, §8, §9, §10, §11, §12, §13, §14, §15, §16, §17, §18, §19, §20, §21, §22, §2, §3

[9] = human plasma, NEU, read-out: Human PPB (NEU) (converted)
[10] = 0.01 M HCl, simulated gastric fluid, pH 2.0, read-out: Sol (pH 2.0) (Monash)
[11] = pH 6.5 phosphate buffer, pH 6.5, aqueous buffer, read-out: Sol (pH 6.5) (Monash)
[12] = NADPH, read-out: CLint, in vitro

MIC ([1]; UCL, read-out: MRSA MIC (UCL)): 4 µg/mL (≈ 12.6 µM)
MIC ([2]; read-out: MSSA MIC (UCL)): 4 µg/mL (≈ 12.6 µM)
MIC ([3]; read-out: VRE MIC (UCL)): 8 µg/mL (≈ 25.2 µM)
Aqueous Solubility (NEU) (Aqueous solubility; NEU): 3 µM
fraction unbound [4, 9]: 0.023
HLM CLint (NEU) [5]: 61.5 uL/min/mg protein
solubility kinetic at 30 min [6, 10]: 50 to 100 µg/mL (≈ 158 to 315 µM)
solubility kinetic at 30 min [6, 11]: 12.5 to 25 µg/mL (≈ 39.4 to 78.8 µM)
HLM Clint (Monash) ([7]; Monash): 72 µL/min/mg
HLM t1/2 (Monash) ([7]; Monash): 24 min
RLM Clint (Monash) ([8]; Monash): 503 µL/min/mg
RLM t1/2 (Monash) ([8]; Monash): 3 min
Compound: c1ccc(-c2nc3n(c2-c2ccc4sccc4c2)CCC3)nc1 [OSA_000822]

MIC ([1]; 16 h, read-out: MRSA MIC): 4 µg/mL (≈ 13.3 µM)
MIC ([1]; UCL, read-out: MRSA MIC (UCL)): 2 µg/mL (≈ 6.64 µM)
MIC ([1]; read-out: MRSA MIC): 2 µg/mL (≈ 6.64 µM)
MIC ([2]; read-out: MSSA MIC (UCL)): 2 µg/mL (≈ 6.64 µM)
MIC ([3]; read-out: VRE MIC): 2 µg/mL (≈ 6.64 µM)
solubility (Aqueous solubility; NEU, read-out: Aqueous Solubility (NEU)): 117 µM (≈ 35.3 µg/mL)
fraction unbound [4, 9]: 0.028
microsomal CLint ([5]; read-out: HLM CLint (NEU)): 63.5 µL/min/mg
solubility kinetic at 30 min [6, 10]: > 100 µg/mL
solubility kinetic at 30 min [6, 11]: 25 to 50 µg/mL (≈ 83 to 166 µM)
microsomal CLint at 1 µM ([7]; Monash, read-out: HLM Clint (Monash)): 51 µL/min/mg
half-life at 1 µM ([7]; Monash, read-out: HLM t1/2 (Monash)): 34 min
microsomal CLint at 1 µM ([8]; Monash, read-out: RLM Clint (Monash)): 72 µL/min/mg
half-life at 1 µM ([8]; Monash, read-out: RLM t1/2 (Monash)): 24 min
Compound: c1ccc(-c2nc3n(c2-c2ccc4occc4c2)CCC3)nc1 [compound 821]

MRSA MIC [1]: 4 µg/mL
MIC ([1]; 16 h, read-out: MRSA MIC): 2 µg/mL (≈ 6.3 µM)
MIC ([1]; read-out: MRSA MIC): 2 µg/mL (≈ 6.3 µM)
MIC ([2]; read-out: MSSA MIC): 4 µg/mL (≈ 12.6 µM)
MIC ([3]; read-out: VRE MIC): 8 µg/mL (≈ 25.2 µM)
solubility (Aqueous solubility; read-out: Aqueous Solubility): 3 µM (≈ 0.952 µg/mL)
fraction unbound ([4]; read-out: Human PPB (converted)): 0.023
Sol 2.0 ([6]; 0.01 M HCl, approx pH 2.0): 50 to 100 µg/mL
Sol 6.5 ([6]; pH 6.5 phosphate buffer): 12.5 to 25 µg/mL
microsomal CLint at 1 µM [7, 12]: 72 µL/min/mg
half-life at 1 µM ([7]; NADPH, read-out: T1/2): 24 min
microsomal CLint at 1 µM [8, 12]: 503 µL/min/mg
half-life at 1 µM ([8]; NADPH, read-out: T1/2): 3 min
Compound: c1ccc(-c2nc3n(c2-c2ccc4sccc4c2)CCC3)nc1 [compound 822]
activity against MRSA, in words [1]: MRSA-active
